Patent US20100160454A1, “ANTIMICROBIAL AGENTS, COMPOSITIONS AND PRODUCTS CONTAINING THE SAME, AND METHODS OF USING THE COMPOSITIONS AND PRODUCTS” (Eastman Chemical Company, priority 2008, published 2010)

Experiments:
Assay type in all cases: cell-based
[1] = tested on: Pseudomonas aeruginosa Wild type; assay: Microbiological challenge testing in BPW broth, graded subculture counts; details: P. aeruginosa
Description: (§1) The microorganisms in the table below were used in challenge tests. They were either ATCC (American Type Culture Collection) or “wild type” as indicated. Wild type organisms were problematic organisms previously isolated from chemical products.
(§2) All of the microorganisms were grown in Tryptose Soy Broth (TSB), DIFCO™ available from Becton, Dickinson and Company, containing 1% dextrose. Candida albicans and Aspergillus niger, were incubated at 22° C.+/−2° C. for at least 96 hours. All bacteria were incubated at 35° C.+/−2° C. in a humidified incubator for at least 96 hours.
(§3) The following procedure was followed to determine the amount of each challenge material (inoculum broth) needed to produce a 10^8 CFU/mL challenge, which is equivalent to a final test-sample microbial concentration of 10^5 to 10^6 CFU/mL (CFU=colony forming units).
(§4) Using a sterile pipette, 1 mL of the growth from each TSB culture was transferred into tubes of 9 mL buffered water (pH 7.2 phosphate buffer) and mixed thoroughly. This was repeated to make serial 1:10 dilutions. Then, 0.1 mL of each sample and dilution was inoculated onto agar plates to produce the equivalent of a further 1:10 dilution. (C. albicans and A. niger were inoculated onto SABD and bacteria were inoculated onto Plate Count Agar (PCA), DIFCO™ available from Becton, Dickinson and Company.) (The normal volume plated for most samples was 0.1 mL. Some samples that could be very low in micro-organisms (high dilutions) were plated using 0.5 mL of inoculum, in order to produce reproducible counts.) The samples were distributed on the plates using the spread-plate technique. The spread-plate technique is carried out by spreading the sample over the entire plate surface using a sterile spreading rod while rotating the plate with a rotary auto-plater. After the inoculum was absorbed completely by the agar, each plate was inverted and incubated (fungi at 22° C.+/−2° C. and bacteria at 35° C.+/−2° C.).
(§5) After incubation for at least 48 hours, colonies that had developed on the agar plates were counted (CFU) and recorded with the corresponding dilution. If counting had to be delayed temporarily, plates were refrigerated, preferably no more than 24 hours, until they could be counted. The number of CFU/mL was determined by multiplying the plate count by the dilution factor of the plate counted.
(§6) Turbidity in Nepholemetric Turbidity Units (NTU) was measured for each serial dilution using the HF-Micro 100 Model Turbidimeter. For each microorganism, the plate counts were compared to the turbidity readings.
(§7) Control substrates (“broth alone”) were prepared for each microorganism separately in triplicate by adding 13.5 mL of Buffered Peptone Water broth (BPW) containing 1% dextrose to each 20-mL glass tube, then adding 1.5 mL challenge material to produce a final concentration at time zero of 10^5 to 10^6 CFU/mL and a total volume of 15 mL.
(§8) Test sample substrates were prepared containing each test material listed below at the concentrations shown for challenge testing with each microorganism separately. Sample substrates were prepared in triplicate, except the substrates containing butoxyethanol which were prepared in duplicate. Substrates were prepared by adding BPW containing 1% dextrose to each 20-mL glass tube, then adding the test material in the amount appropriate to achieve the desired weight/volume percent and to achieve a total volume of BPW plus dextrose plus test material of 13.5 mL. Then 1.5 mL challenge material was added to produce a final concentration at time zero of 10^5 to 10^6 CFU/mL and a total test sample substrate volume of 15 mL.

[2] = tested on: Escherichia coli ATCC 25922; assay: as above; details: E. Coli
Description: as §1, §2, §3, §4, §5, §6, §7, §8

[3] = tested on: Proteus vulgaris Wild type; assay: as above
Description: as §1, §2, §3, §4, §5, §6, §7, §8

[4] = tested on: Microsporum canis (ATTC 9084); assay: Challenge testing against pathogenic fungi, growth rating in broth tubes; design: key: 0: No visible growth; 1: Some growth in tube; 2: Moderate growth in tube; 3: Good growth in tube; 4: Extreme growth in tube
Method in brief: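 Fungi grown in Sabouraud dextrose broth (M. furfur with 2% olive oil/0.2% Tween 80), 22±2 °C; tubes of 1,4-CHDM-D90 dilutions inoculated, static incubation, subcultured at 3, 14, 30 days, triplicate. Growth rated 0–4: visually (M. canis), INT redox dye (T. rubrum), pellicle formation (M. furfur); 30-day MIC.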

Q: How did the Grade ([1]; 0.5% (wt/vol), 3 day) turn out when `OCC1CCCC(CO)C1` (stereo not drawn) [1,3-CHDM, 1,3-cyclohexanedimethanol] was run?
A: 5 (More than 10,000 colonies estimated (thus more than 100,000 CFU/mL))

Q: And the Grade ([1]; 0.5% (wt/vol), 13 day)?
A: 5 (More than 10,000 colonies estimated (thus more than 100,000 CFU/mL))

Q: What about the Grade ([1]; 0.5% (wt/vol), 30 day) of the same molecule?
A: 5 (More than 10,000 colonies estimated (thus more than 100,000 CFU/mL))

Q: What about the Grade ([1]; 1.25% (wt/vol), 3 day) of the same molecule?
A: 4 (1000 to 10,000 colonies countable (thus 10,000 CFU/mL to 100,000 CFU/mL))

Q: What about the Grade ([1]; 1.25% (wt/vol), 13 day) of the same molecule?
A: 4 (1000 to 10,000 colonies countable (thus 10,000 CFU/mL to 100,000 CFU/mL))

Q: What about the Grade ([1]; 1.25% (wt/vol), 30 day) of the same molecule?
A: 4 (1000 to 10,000 colonies countable (thus 10,000 CFU/mL to 100,000 CFU/mL))

Q: And the Grade ([1]; 2.5% (wt/vol), 3 day)?
A: 4 (1000 to 10,000 colonies countable (thus 10,000 CFU/mL to 100,000 CFU/mL))

Q: What about the Grade ([1]; 2.5% (wt/vol), 13 day) of the same molecule?
A: 4 (1000 to 10,000 colonies countable (thus 10,000 CFU/mL to 100,000 CFU/mL))

Q: What about the Grade ([1]; 2.5% (wt/vol), 30 day) of the same molecule?
A: 4 (1000 to 10,000 colonies countable (thus 10,000 CFU/mL to 100,000 CFU/mL))

Q: What about the Grade ([1]; 5.0% (wt/vol), 3 day) of the same molecule?
A: 4 (1000 to 10,000 colonies countable (thus 10,000 CFU/mL to 100,000 CFU/mL))

Q: And the Grade ([1]; 5.0% (wt/vol), 13 day)?
A: 4 (1000 to 10,000 colonies countable (thus 10,000 CFU/mL to 100,000 CFU/mL))

Q: What about the Grade ([1]; 5.0% (wt/vol), 30 day) of the same molecule?
A: 4 (1000 to 10,000 colonies countable (thus 10,000 CFU/mL to 100,000 CFU/mL))

Q: What about the Grade ([2]; 0.5% (wt/vol), 3 day) of the same molecule?
A: 5 (More than 10,000 colonies estimated (thus more than 100,000 CFU/mL))

Q: What about the Grade ([2]; 0.5% (wt/vol), 14 day) of the same molecule?
A: 5 (More than 10,000 colonies estimated (thus more than 100,000 CFU/mL))

Q: What about the Grade ([2]; 0.5% (wt/vol), 30 day) of the same molecule?
A: 5 (More than 10,000 colonies estimated (thus more than 100,000 CFU/mL))

Q: What about the Grade ([2]; 1.25% (wt/vol), 3 day) of the same molecule?
A: 5 (More than 10,000 colonies estimated (thus more than 100,000 CFU/mL))

Q: What about the Grade ([2]; 1.25% (wt/vol), 14 day) of the same molecule?
A: 4 (1000 to 10,000 colonies countable (thus 10,000 CFU/mL to 100,000 CFU/mL))

Q: And the Grade ([2]; 1.25% (wt/vol), 30 day)?
A: 4 (1000 to 10,000 colonies countable (thus 10,000 CFU/mL to 100,000 CFU/mL))

Q: And the Grade ([2]; 2.5% (wt/vol), 3 day)?
A: 5 (More than 10,000 colonies estimated (thus more than 100,000 CFU/mL))

Q: And the Grade ([2]; 2.5% (wt/vol), 14 day)?
A: 4 (1000 to 10,000 colonies countable (thus 10,000 CFU/mL to 100,000 CFU/mL))

Q: And the Grade ([2]; 2.5% (wt/vol), 30 day)?
A: 4 (1000 to 10,000 colonies countable (thus 10,000 CFU/mL to 100,000 CFU/mL))

Q: What about the Grade ([2]; 5.0% (wt/vol), 3 day) of the same molecule?
A: 4 (1000 to 10,000 colonies countable (thus 10,000 CFU/mL to 100,000 CFU/mL))

Q: What about the Grade ([2]; 5.0% (wt/vol), 14 day) of the same molecule?
A: 3 (100 to 1000 colonies (thus 1000 to 10,000 CFU/mL))

Q: What about the Grade ([2]; 5.0% (wt/vol), 30 day) of the same molecule?
A: 4 (1000 to 10,000 colonies countable (thus 10,000 CFU/mL to 100,000 CFU/mL))

Q: And the “P. vulgaris growth grade, 3 day” value ([3]; 0.5% weight/volume)?
A: 5 (More than 10,000 colonies estimated (thus more than 100,000 CFU/mL))

Q: What about the “P. vulgaris growth grade, 13 day” value ([3]; 0.5% weight/volume) of the same molecule?
A: 5 (More than 10,000 colonies estimated (thus more than 100,000 CFU/mL))

Q: And the “P. vulgaris growth grade, 30 day” value ([3]; 0.5% weight/volume)?
A: 5 (More than 10,000 colonies estimated (thus more than 100,000 CFU/mL))

Q: What about the “P. vulgaris growth grade, 3 day” value ([3]; 1.25% weight/volume) of the same molecule?
A: 5 (More than 10,000 colonies estimated (thus more than 100,000 CFU/mL))

Q: And the “P. vulgaris growth grade, 13 day” value ([3]; 1.25% weight/volume)?
A: 4 (1000 to 10,000 colonies countable (thus 10,000 CFU/mL to 100,000 CFU/mL))

Q: And the “P. vulgaris growth grade, 30 day” value ([3]; 1.25% weight/volume)?
A: 4 (1000 to 10,000 colonies countable (thus 10,000 CFU/mL to 100,000 CFU/mL))

Q: What about the “P. vulgaris growth grade, 3 day” value ([3]; 2.5% weight/volume) of the same molecule?
A: 4 (1000 to 10,000 colonies countable (thus 10,000 CFU/mL to 100,000 CFU/mL))

Q: And the “P. vulgaris growth grade, 13 day” value ([3]; 2.5% weight/volume)?
A: 4 (1000 to 10,000 colonies countable (thus 10,000 CFU/mL to 100,000 CFU/mL))

Q: And the “P. vulgaris growth grade, 30 day” value ([3]; 2.5% weight/volume)?
A: 4 (1000 to 10,000 colonies countable (thus 10,000 CFU/mL to 100,000 CFU/mL))

Q: And the “P. vulgaris growth grade, 3 day” value ([3]; 5.0% weight/volume)?
A: 4 (1000 to 10,000 colonies countable (thus 10,000 CFU/mL to 100,000 CFU/mL))

Q: And the “P. vulgaris growth grade, 13 day” value ([3]; 5.0% weight/volume)?
A: 4 (1000 to 10,000 colonies countable (thus 10,000 CFU/mL to 100,000 CFU/mL))

Q: And the “P. vulgaris growth grade, 30 day” value ([3]; 5.0% weight/volume)?
A: 4 (1000 to 10,000 colonies countable (thus 10,000 CFU/mL to 100,000 CFU/mL))

Q: What about the “M. canis growth rating, 3 day” value ([4]; 0.5% weight/volume) of the same molecule?
A: 2

Q: What about the “M. canis growth rating, 14 day” value ([4]; 0.5% weight/volume) of the same molecule?
A: 1

Q: What about the “M. canis growth rating, 30 day” value ([4]; 0.5% weight/volume) of the same molecule?
A: 1

Q: And the “M. canis growth rating, 3 day” value ([4]; 1.25% weight/volume)?
A: 2

Q: And the “M. canis growth rating, 14 day” value ([4]; 1.25% weight/volume)?
A: 1

Q: What about the “M. canis growth rating, 30 day” value ([4]; 1.25% weight/volume) of the same molecule?
A: 1

Q: What about the “M. canis growth rating, 3 day” value ([4]; 2.5% weight/volume) of the same molecule?
A: 0

Q: And the “M. canis growth rating, 14 day” value ([4]; 2.5% weight/volume)?
A: 0

Q: What about the “M. canis growth rating, 30 day” value ([4]; 2.5% weight/volume) of the same molecule?
A: 0

Q: And the “M. canis growth rating, 3 day” value ([4]; 5.0% weight/volume)?
A: 2

Q: What about the “M. canis growth rating, 14 day” value ([4]; 5.0% weight/volume) of the same molecule?
A: 1

Q: What about the “M. canis growth rating, 30 day” value ([4]; 5.0% weight/volume) of the same molecule?
A: 1
